Where a name gives a salt, the structure may show the parent alone.
Biological target: RIPK1 (recombinant GST-RIPK1 kinase domain, residues 1-327) (Homo sapiens (Human), UniProt Q13546)
Assay: RIPK1-ADP-Glo Enzymatic Assay
Type: biochemical
Details: ADP-Glo; 25 nM GST-RIPK1, 300 μM ATP; assay lower limit ~25 nM; read-out: RIPK1 V0 Ec50
Summary of the method: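 ADP-Glo luminescence read after 150 min kinase reaction (300 μM ATP, 3 μM dephosphorylated MBP) using 25 nM Sf21-made GST-kinase domain (1-327), preincubated 30 min with compound. HEPES pH 7.3, 1% DMSO; ten-point 1:3 series from 100000 nM, EC50 via four-parameter sigmoidal regression.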

Chain of RIPK1 (recombinant GST-RIPK1 kinase domain, residues 1-327) (Q13546 1-327): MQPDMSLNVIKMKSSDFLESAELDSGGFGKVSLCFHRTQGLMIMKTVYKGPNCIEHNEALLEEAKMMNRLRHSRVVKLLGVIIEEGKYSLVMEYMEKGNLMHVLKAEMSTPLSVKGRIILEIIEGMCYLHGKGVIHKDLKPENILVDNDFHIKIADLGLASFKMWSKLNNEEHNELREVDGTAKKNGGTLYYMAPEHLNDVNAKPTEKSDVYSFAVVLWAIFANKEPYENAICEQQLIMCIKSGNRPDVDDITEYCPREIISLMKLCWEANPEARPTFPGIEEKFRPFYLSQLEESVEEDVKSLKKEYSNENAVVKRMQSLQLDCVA

Row | EC50 | SMILES
1 | 0.18 µM | O=C1N2[C@H](CC[C@@H]2c2ccccc2)SC12CCN(c1ccnc3ccnn13)CC2 [Example 4.115, (5′R,7a′S)-5′-phenyl-1-(pyrazolo[1,5-a]pyrimidin-7-yl)tetrahydro-3′H-spiro[piperidine-4,2′-pyrrolo[2,1-b]thiazol]-3′-one]
2 | < 0.025 µM | CCOc1cccc(C(=O)N2CCC3(CC2)O[C@@H]2CC[C@@H](c4cccc(F)c4)N2C3=O)c1 [Example 6.121, (5′S,7a′R)-1-(3-ethoxy-benzene-1-carbonyl)-5′-(3-fluorophenyl)-tetrahydro-3′H-spiro [piperidine-4,2′-pyrrolo[2,1-b][1,3]oxazol]-3′-one]
3 | 0.212 µM | O=C(c1ccsc1-n1nccn1)N1CCC2(CC1)O[C@@H]1CC[C@@H](c3cc(F)cc(F)c3)N1C2=O [Example 6.68, (5′S,7a′R)-5′-(3,5-difluorophenyl)-1-[2-(2H-1,2,3-triazol-2-yl)thiophene-3-carbonyl]tetrahydro-3′H-spiro[piperidine-4,2′-pyrrolo[2,1-b] [1,3]oxazol]-3′-one]
4 | 0.0811 µM | O=C(c1nnn2ccccc12)N1CCC2(CC1)O[C@@H]1CC[C@@H](c3cc(F)cc(F)c3)N1C2=O [Example 5.66, (5′S,7a′R)-1-([1,2,3]-triazolo-[1,5-a]pyridine-3-carbonyl)-5′-(3,5-difluoro-phenyl)tetrahydro-3′H-spiro[piperidine-4,2′-pyrrolo[2,1-b]oxazol]-3′-one]
5 | 0.0438 µM | O=C(c1ccn2ncnc2n1)N1CCC2(CC1)O[C@@H]1CC[C@@H](c3cc(F)cc(F)c3)N1C2=O [Example 6.87, (5′S,7a′R)-5′-(3,5-difluorophenyl)-1-([1,2,4]triazolo[1,5-a]pyrimidine-5-carbonyl)tetrahydro-3′H-spiro[piperidine-4,2′-pyrrolo[2,1-b] [1,3]oxazol]-3′-one]
6 | 0.025 µM | O=C1N2[C@@H](CC[C@H]2c2ccccc2)OC12CCN(c1ncccc1Cl)CC2 [Example 4.256, (5′S,7a′R)-1-(3-chloropyridin-2-yl)-5′-phenyltetrahydro-3′H-spiro[piperidine-4,2′-pyrrolo[2,1-b] [1,3]oxazol]-3′-one]
7 | 0.0392 µM | COc1nc(N2CCC3(CC2)O[C@@H]2CC[C@@H](c4cc(F)cc(F)c4)N2C3=O)ncc1Cl [Example 4.62, (5′S,7a′R)-1-(5-chloro-4-methoxypyrimidin-2-yl)-5′-(3,5-difluorophenyl)tetrahydro-3′H-spiro[piperidine-4,2′-pyrrolo[2,1-b] [1,3]oxazol]-3′-one]
8 | < 0.025 µM | O=C(c1cc(F)ccc1F)N1CCC2(CC1)O[C@@H]1CC[C@@H](c3ccccc3F)N1C2=O [Example 1.12, (5′S,7a′R)-1-(2,5-difluorobenzoyl)-5′-(2-fluorophenyl)tetrahydro-3′H-spiro[piperidine-4,2′-pyrrolo[2,1-b]oxazol]-3′-one]
9 | 0.333 µM | N#Cc1ccc(C(=O)N2CCC3(CC2)O[C@@H]2CC[C@@H](c4cc(F)cc(F)c4)N2C3=O)cc1F [Example 5.19, 4-((5′S,7a′R)-5′-(3,5-difluorophenyl)-3′-oxo-tetrahydro-3′H-spiro [piperidine-4,2′-pyrrolo-[2,1-b]oxazole]-1-carbon-yl)-2-fluorobenzonitrile]
10 | < 0.025 µM | O=C1N2[C@@H](CC[C@H]2c2cccc(F)c2)OC12CCN(c1cc(-c3ccccc3)ncn1)CC2 [Example 4.125, (5′S,7a′R)-5′-(3-fluorophenyl)-1-(6-phenylpyrimidin-4-yl)tetrahydro-3′H-spiro[piperidine-4,2′-pyrrolo[2,1-b] [1,3]oxazol]-3′-one]
11 | 0.053 µM | COCCN1Cc2nc(N3CCC4(CC3)O[C@@H]3CC[C@@H](c5ccccc5)N3C4=O)ccc2C1=O [Example 4.191, (5′S,7a′R)-1-[6-(2-methoxyethyl)-5-oxo-6,7-dihydro-5H-pyrrolo[3,4-b]pyridin-2-yl]-5′-phenyltetrahydro-3′H-spiro[piperidine-4,2′-pyrrolo[2,1-b] [1,3]oxazol]-3′-one]
12 | 0.0272 µM | O=C(c1cocn1)N1CCC2(CC1)O[C@@H]1CC[C@@H](c3cc(F)cc(F)c3)N1C2=O [Example 5.54, (5′S,7a′R)-5′-(3,5-difluoro-phenyl)-1-(oxazole-4-car-bonyl)tetrahydro-3′H-spiro [piperidine-4,2′-pyrrolo-[2,1-b]oxazol]-3′-one]
13 | 0.558 µM | O=C(c1ccccc1)N1CCC2(CC1)O[C@@H]1CC[C@@H](c3cnsc3)N1C2=O [Example 17.7, (5′S,7a′R)-1-benzoyl-5′-(isothiazol-4-yl)tetrahydro-3′H-spiro[piperidine-4,2′-pyrrolo[2,1-b]oxazol]-3′-one]
14 | 0.394 µM | COc1cccc([C@@H]2CC[C@H]3OC4(CCN(c5cc(C#N)ncn5)CC4)C(=O)N32)c1 [Example 20.3, 6-[(5′S,7a′R)-5′-(3-methoxyphenyl)-3′-oxotetrahydro-1H,3′H-spiro[piperidine-4,2′-pyrrolo[2,1-b][1,3]oxazol]-1-yl]pyrimidine-4-carbonitrile]
15 | < 0.025 µM | N#Cc1ccc(F)c(C(=O)N2CCC3(CC2)O[C@@H]2CC[C@@H](c4cccc(F)c4)N2C3=O)c1 [Example 6.130, 4-fluoro-3-[(5′S,7a′R)-5′-(3-fluorophenyl)-3′-oxotetrahydro-1H,3′H-spiro[piperidine-4,2′-pyrrolo[2,1-b][1,3]-oxazole]-1-carbonyl] benzonitrile]
16 | 0.083 µM | O=C1N2[C@@H](CC[C@H]2c2ccccc2)OC12CCN(c1cc(Cl)nc(C3CCCCC3)n1)CC2 [Example 4.34, (5′S,7a′R)-1-(6-chloro-2-cyclohexylpyrimidin-4-yl)-5′-phenyltetrahydro-3′H-spiro[piperidine-4,2′-pyrrolo[2,1-b] [1,3]oxazol]-3′-one]
17 | < 0.025 µM | N#Cc1ccc(N2CCC3(CC2)O[C@@H]2CC[C@@H](c4ccccc4)N2C3=O)n2ncc(C(F)F)c12 [Example 4.179, 3-(difluoromethyl)-7-[(5′S,7a′R)-3′-oxo-5′-phenyltetrahydro-1H,3′H-spiro[piperidine-4,2′-pyrrolo[2,1-b] [1,3]oxazol]-1-yl]pyrazolo[1,5-a] pyridine-4-carbonitrile]
18 | 0.0273 µM | O=C1N2[C@@H](CC[C@H]2c2cc(F)cc(F)c2)OC12CN(c1ccnc3ccnn13)C2 [Example 4.134, (5′S,7a′R)-5′-(3,5-difluorophenyl)-1-(pyrazolo[1,5-a]pyrimidin-7-yl)tetrahydro-3′H-spiro[azetidine-3,2′-pyrrolo[2,1-b] [1,3]oxazol]-3′-one]
19 | 0.0288 µM | COCOc1cc(-c2ccc(N3CCC4(CC3)O[C@@H]3CC[C@@H](c5ccccc5)N3C4=O)nc2)on1 [Example 4.164, (5′S,7a′R)-1-{5-[3-(methoxymethoxy)-1,2-oxazol-5-yl]pyridin-2-yl}-5′-phenyltetrahydro-3′H-spiro[piperidine-4,2′-pyrrolo[2,1-b] [1,3]oxazol]-3′-one]

Row | SMILES | EC50
20 | CSc1nc(N2CCC3(CC2)O[C@@H]2CC[C@@H](c4cc(F)cc(F)c4)N2C3=O)n2nccc2n1 [Example 4.86, (5′S,7a′R)-5′-(3,5-difluorophenyl)-1-(2-(methylthio)pyrazolo [1,5-a][1,3,5]triazin-4-yl)tetrahydro-3′H-spiro[piperidine-4,2′-pyrrolo[2,1-b]oxazol]-3′-one, TFA salt] | 0.269 µM
